Measured values: patent publication EP4775574A1, “FURAN RING-CONTAINING COMPOUND, PHARMACEUTICAL COMPOSITION THEREOF, AND USE THEREOF” (Wuhan Xirui Pharmaceutical Technology Co., Ltd, priority 2023, dated 2025)
Like-named read-outs stand apart in the source and are kept apart here.

Key:
[1] = Pharmacokinetic determination in KM mice; assay type: in vivo
Description: Using KM mice as test animals, the pharmacokinetic behavior of the compounds in the examples in mouse plasma after administration by gavage at a dose of 10 mg/kg or by intravenous injection at a dose of 1 mg/kg was studied.
Male SPF-grade KM mice, with body weight (20 ± 2) g.
Drug preparation for the intragastric administration group: The drug concentration was prepared as 1 mg/mL, and the preparation solvent was Tween80 + 0.5% MC (v/v 1:99).
Drug preparation for the intravenous administration group: The drug concentration was prepared as 0.2 mg/mL, and the preparation solvent was 5% DMA + 5% Solutol HS-15 + 90% normal saline.
Intragastric administration group: The administration dose was 10 mg/kg, and the administration volume was 10 mL/kg.
Intravenous administration group: The administration dose was 1 mg/kg, and the administration volume was 5 mL/kg.
Intragastric administration: Blood was collected from mice before administration (0 h) and after administration at 0, 0.25 h, 0.5 h, 1 h, 2 h, 4 h, 6 h, 8 h, 10 h, and 24 h. Intravenous injection: Blood was collected before administration (0 h) and after administration at 5, 15, 30 min, 1, 2, 4, 6, 8, and 24 h.
Blood, approximately 0.1 mL, was collected by retro-orbital puncture and placed into EDTA-K2 anticoagulant tubes with labels. After blood collection, the tubes were gently and completely inverted three times to mix with the anticoagulant. The samples were then immediately placed in an ice-water bath and centrifuged at 4500 rpm for 10 min at 4°C. After centrifugation, the plasma was promptly aliquoted into EP tubes with corresponding labels and stored in a -80°C freezer.
After administration, 20 µL of mouse plasma was taken and placed into a 96-deep-well plate pre-filled with 20 µL of internal standard working solution. Methanol (400 µL) as the precipitating agent was added, vortexed for 10 min, and centrifuged at 4000 rpm for 15 min. A supernatant of 200 µL was transferred into another 96-deep-well plate pre-filled with 200 µL of ultrapure water, vortexed for 5 min, and centrifuged at 4000 rpm for 3 min. A supernatant of 5 µL was taken for LC-MS/MS analysis of plasma drug concentration.
The main pharmacokinetic parameters were calculated by WinNonlin 7.0, and the pharmacokinetic experimental results of mice are shown in Table 5 below. Table 5: Pharmacokinetic experimental results of mice

hNav1.8 = target: T1, hNav1.8 (Homo sapiens, UniProt Q9Y5Y9); assay: Manual patch-clamp IC50 on hNav1.8 channel current (HEK293 hNav1.8/β3); assay type: cell-based; settings: HEK293 stably expressing hNav1.8/β3, n = 2, read-out: Inhibitory activity (IC50)
T1 construct: host or cells: HEK293
Description: This experiment was performed by detecting the influence of 5 concentrations of the compound or a single point or two concentration points on the hNav1.8 channel current, the dose-response curve of the compound was obtained, and the IC50 was calculated. This experiment was conducted to include two parallel sample determinations.
• 1) Cells: The HEK293 cell line that stably expressed the hNav1.8/β3 ion channel was prepared in-house by the Biology Department of Pharmaron (Beijing) Co., Ltd. (The lentiviral vectors that respectively expressed human Nav1.8 and β3 were transduced into HEK293, and it was prepared after screening. Specific reference: Proc Natl Acad Sci U S A. 2022 Jul 26;119(30):e2208211119. doi: 10.1073/pnas.2208211119. and the Cell Lines / BSYS CHO NaV1.8/β3 Cell Line manual.). The cell line was cultured in a medium containing 90% DMEM, 10% fetal bovine serum, 100 U/mL penicillin-streptomycin solution, 0.75 µg/mL puromycin, and 100 µg/mL hygromycin. When the cell density had grown to 40% to 80% of the bottom area of the culture dish, digestion was performed with trypsin, and passage was carried out three times per week. […]

[2] = male, KM, mouse, in vivo, iv, 1 mg/kg
[3] = male, KM, mouse, in vivo, po, 10 mg/kg

T1 sequence (Q9Y5Y9 whole entry): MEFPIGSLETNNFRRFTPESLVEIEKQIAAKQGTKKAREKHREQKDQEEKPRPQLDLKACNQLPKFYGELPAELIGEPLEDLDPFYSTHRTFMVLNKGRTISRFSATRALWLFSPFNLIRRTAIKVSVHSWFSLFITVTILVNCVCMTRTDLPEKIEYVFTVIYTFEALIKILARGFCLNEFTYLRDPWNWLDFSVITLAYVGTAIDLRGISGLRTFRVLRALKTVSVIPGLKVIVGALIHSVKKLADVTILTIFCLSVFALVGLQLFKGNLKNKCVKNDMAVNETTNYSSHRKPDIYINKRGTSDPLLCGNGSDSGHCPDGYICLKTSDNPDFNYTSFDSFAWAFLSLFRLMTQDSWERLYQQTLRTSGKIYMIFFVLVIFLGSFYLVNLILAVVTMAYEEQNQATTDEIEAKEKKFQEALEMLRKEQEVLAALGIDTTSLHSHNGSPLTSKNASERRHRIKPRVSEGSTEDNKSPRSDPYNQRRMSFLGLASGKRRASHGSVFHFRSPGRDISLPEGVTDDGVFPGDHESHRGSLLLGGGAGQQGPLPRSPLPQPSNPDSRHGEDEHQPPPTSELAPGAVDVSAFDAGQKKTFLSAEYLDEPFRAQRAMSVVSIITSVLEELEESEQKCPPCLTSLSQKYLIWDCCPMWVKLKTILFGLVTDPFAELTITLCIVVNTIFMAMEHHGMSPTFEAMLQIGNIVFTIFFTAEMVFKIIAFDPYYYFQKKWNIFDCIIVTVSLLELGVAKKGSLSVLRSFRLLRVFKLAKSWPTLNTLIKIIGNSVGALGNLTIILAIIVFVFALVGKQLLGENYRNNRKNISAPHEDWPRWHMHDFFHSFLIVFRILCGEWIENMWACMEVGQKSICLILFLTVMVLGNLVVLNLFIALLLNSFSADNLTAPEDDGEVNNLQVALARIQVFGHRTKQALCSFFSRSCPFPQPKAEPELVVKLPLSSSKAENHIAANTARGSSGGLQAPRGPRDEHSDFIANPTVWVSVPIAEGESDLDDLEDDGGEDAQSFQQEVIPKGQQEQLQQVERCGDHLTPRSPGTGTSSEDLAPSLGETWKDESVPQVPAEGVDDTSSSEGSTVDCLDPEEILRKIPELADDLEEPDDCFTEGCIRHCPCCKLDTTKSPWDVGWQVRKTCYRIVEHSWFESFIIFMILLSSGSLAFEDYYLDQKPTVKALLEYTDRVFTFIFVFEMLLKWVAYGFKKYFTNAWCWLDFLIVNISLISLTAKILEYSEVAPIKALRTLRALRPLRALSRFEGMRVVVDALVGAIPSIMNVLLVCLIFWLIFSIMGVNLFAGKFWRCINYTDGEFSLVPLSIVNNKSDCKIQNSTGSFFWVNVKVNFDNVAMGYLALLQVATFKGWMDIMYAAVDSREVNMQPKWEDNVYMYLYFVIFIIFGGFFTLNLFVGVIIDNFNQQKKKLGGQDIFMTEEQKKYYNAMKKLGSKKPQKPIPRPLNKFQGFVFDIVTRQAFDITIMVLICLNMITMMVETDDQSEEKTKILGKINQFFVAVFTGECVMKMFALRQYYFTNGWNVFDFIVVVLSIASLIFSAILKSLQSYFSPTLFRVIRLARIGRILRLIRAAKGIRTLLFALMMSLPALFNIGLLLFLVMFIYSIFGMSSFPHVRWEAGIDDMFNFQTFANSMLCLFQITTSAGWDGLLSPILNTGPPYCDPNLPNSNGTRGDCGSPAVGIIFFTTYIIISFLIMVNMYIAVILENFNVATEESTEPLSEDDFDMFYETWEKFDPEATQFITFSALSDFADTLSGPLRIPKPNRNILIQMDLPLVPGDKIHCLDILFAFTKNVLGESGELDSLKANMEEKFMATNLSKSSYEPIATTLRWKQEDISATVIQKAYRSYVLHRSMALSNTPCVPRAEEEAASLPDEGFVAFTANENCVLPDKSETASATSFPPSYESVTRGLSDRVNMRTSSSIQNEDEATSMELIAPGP
T1 sequence (Q9NY72 25-215 partner limits assumed): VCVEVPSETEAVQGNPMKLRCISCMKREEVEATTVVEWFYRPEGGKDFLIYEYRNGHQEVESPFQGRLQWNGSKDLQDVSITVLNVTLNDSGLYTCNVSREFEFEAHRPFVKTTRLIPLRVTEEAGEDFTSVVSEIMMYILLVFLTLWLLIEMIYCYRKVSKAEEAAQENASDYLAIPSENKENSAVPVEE

Structure (SMILES) | Peak concentration Cmax/C0 ([1]; KM mice, i.g. 10 mg/kg) [ng/mL] | Peak concentration Cmax/C0 ([1]; KM mice, i.v. 1 mg/kg) [ng/mL] | Vd ([1]; mouse, in vivo, iv, KM mice, i.v. 1 mg/kg, read-out: Apparent distribution Vss) [L/kg] | AUC(0-t) ([1]; mouse, in vivo, iv, KM mice, i.v. 1 mg/kg, read-out: Area under the curve AUC0-t) [ng·h/mL] | half-life ([1]; mouse, in vivo, iv, KM mice, i.v. 1 mg/kg, read-out: Half-life t1/2 (converted)) [h] | bioavailability ([1]; mouse, in vivo, po, KM mice, i.g. 10 mg/kg vs i.v. 1 mg/kg, read-out: Bioavailability) [%] | AUC(0-t) ([1]; mouse, in vivo, po, KM mice, i.g. 10 mg/kg, read-out: Area under the curve AUC0-t) [ng·h/mL] | half-life ([1]; mouse, in vivo, po, KM mice, i.g. 10 mg/kg, read-out: Half-life t1/2 (converted)) [h] | Tmax ([1]; mouse, in vivo, po, KM mice, i.g. 10 mg/kg, read-out: Time to peak Tmax) [h] | IC50 (hNav1.8) [nM] | bioavailability ([1]; male, KM, mouse, in vivo) [%] | AUC(0-t) [1, 2] [ng·h/mL] | Clearance CL/F [1, 2] [mL/min/kg] | Cmax [1, 2] [ng/mL] | Vd [1, 2] [L/kg] | half-life [1, 2] [h] | AUC(0-t) [1, 3] [ng·h/mL] | Cmax [1, 3] [ng/mL] | Tmax [1, 3] [h] | half-life [1, 3] [h]
C[C@H]1[C@@H](c2ccc(F)c(F)c2OC2COC2)[C@H](C(=O)Nc2ccc(F)c(C(=N)NO)c2)O[C@@]1(C)C(F)(F)F [Example 11] | 3413.33 | 612.43 | 1.4 | 1060 | 1.44 | 71.4 | 7540 | 1.37 | 0.25 | 0.229 |  |  |  |  |  |  |  |  |  | 
COc1c([C@H]2[C@H](C(=O)Nc3ccnc(C(N)=O)c3)O[C@@](C)(C(F)(F)F)[C@H]2C)ccc(F)c1F [Reference compound, reference compound] |  |  |  |  |  |  |  |  |  | 0.297 | 44.2 | 1020 | 15.222 | 621 | 2.48 | 1.99 | 4530 | 1330 | 1 | 1.97
